# Key:
# brown adipocytes = assay: Thermogenic response (heat output) of cultured brown adipocytes on the thermoelectric sensor; format: cell-based
# Protocol: Brown adipocytes. Brown adipose tissue (BAT) was dissected from the interscapular, subscapular and the axillary regions of four 4-week-old male Naval Medical Research Institute (NMRI) mice. Pre-adipocytes were isolated and seeded in three 30 mm culture dishes and incubated in medium containing sodium bicarbonate (3.7 g/l) under 8% CO2 atmosphere for 6 days, after which time they were harvested. The culture medium based on DMEM with pH 7.4, was modified with 10% foetal calf serum, 20 nM insulin, 1 nM triiodothyronin (T3), 25 μg/ml Na-ascorbate, 4 mM glutamine, 10 mM HEPES, 50 IU/ml penicillin and 50 μg/ml streptomycin. Insulin was required for the expression of mitochondrial uncoupling protein (UCP) whereas the presence of T3 increased the thermogenic response due to more β-adrenergic receptors on the cells. All chemicals were supplied from Sigma-Aldrich and ICN Biomedicals Inc.
# (§1) Experimental Set-up: The sensor chip used in the experiment (FIG. 1) was connected to the custom-made low noise preamplifier, which was positioned within 1 cm of the sensor chip in order to reduce attenuation of the voltage signal and minimise interference. The chip-holder was connected to the amplifier through a gold plated 2.54 mm (0.1 inch) pitch PCB edge connector (gold was used consistently in all contacts to avoid the creation of additional thermocouple junctions between the sensor output and the amplifier input). A transparent chamber enclosed the sensor from the surrounding air to eliminate rapid temperature changes. Water (37° C. or 25° C.), maintained at a constant temperature, was circulated through a 1 ml chamber integrated as part of the copper base plate. Both amplifier and sensor were positioned under a stereo-microscope for the manipulation and positioning of cells, injection of drugs and visual observation throughout the experiment,. The attachment of cells on the thermopile was enhanced by pre-treating the sensor surface with poly-L-lysine, adsorbed from a 0.01% solution in buffer.
# The cell chamber was first covered with a 0.5 μL drop of culture medium with a subsequent addition of 15 μL liquid paraffin (mineral oil) in order to prevent evaporation of the medium. Re-suspended adipocytes (or cardiomyocytes) were positioned on top of the sensing junctions using a micropipette and micromanipulator (FIG. 3a, b, c). Excess medium was removed from the titre chamber leaving a total volume of 700 pL.
# Measurements of heat output from cells were made with the cell chamber filled with 700 pL of culture medium and overlain with a layer of mineral oil to prevent evaporation. The device was held at a constant temperature of either 25° C. or 37° C. In the absence of cells there was no response from the thermopile to the injection of 10 pL of culture medium, nor to 10 pL culture medium containing a final concentration of 1.4 μM NE (see FIG. 4). […] The magnitude of the response was consistent with published values from populations of cells, where above-threshold levels of NE activation induced a ten-fold increase in oxygen consumption.
# [1] = tested on: rabbit ventricular cardiomyocytes; assay: Heat output from isolated cardiac myocytes challenged with a mitochondrial uncoupler; format: cell-based; conditions: CCCP 14 μM final concentration, n=5
# Protocol: Cardiomyocytes. Isolated cells were obtained from adult rabbit left ventricle by collagenase digestion and kept in Base Krebs Solution, containing: 120 mM NaCl, 20 mM sodium N-hydroxyethylpiperazine-N′-2-ethane sulphonic acid (HEPES), 5.4 mM KCl, 0.52 mM NaH2PO4, 3.5 mM MgCl2.6 H2O, 20 mM taurine, 10 mM creatine, 11.1 mM glucose, 0.1% bovine serum albumin (BSA), pH 7.4. Cells were transferred to the sensor chips using a pipette (manual or robotic instrument) and placed onto the thermocouple junctions.
# as §1, with “Both amplifier and sensor were positioned under a stereo-microscope for the manipulation and positioning of cells, injection of drugs and visual observation throughout the experiment,. The attachment of cells on the thermopile was enhanced by pre-treating the sensor surface with poly-L-lysine, adsorbed from a 0.01% solution in buffer.” left out
# single mouse liver cell = conditions: H2O2 initial concentration 14 mM, 700 pL, n=3
# Source text: The culture medium (pH 7.4) required to accommodate the cell occupied the full volume of the reaction vessel, and was considered to have the same thermodynamic properties as water. […] The heat conductance for a single cell system would be 80 μW/K with a heat capacity of 1 μJ/K.
# Subsequently a mouse liver cell was positioned by a micromanipulator and immobilised on top of the temperature sensors in the reaction vessel with the aid of Cell-Tak tissue adhesive ensuring good thermal contact between the cell and sensor surface. H2O2 was then microinjected to yield an initial concentration of 14 mM after 200 seconds of the experiment commencing. The slightly altered pH value of the medium has minimal effect on the catalase activity. […] The short time constant for thermal equilibrium of the sensor (12 ms) compared to the long time duration of the measured signal (100 s), excludes a temperature difference in the injected solution as the cause of the measured temperature change.
smiles,measurement,setting,value
"NC[C@H](O)c1ccc(O)c(O)c1 [NE, noradrenaline]",time to maximum value of heat production,brown adipocytes; 1.4 μM NE final concentration (saturated thermogenic response),≤ 2 min
same,duration for which heat output was sustained,"brown adipocytes; NE-stimulated cells, 1.4 μM",at least 20 minutes
same,average power output per cell,"brown adipocytes; brown adipocytes, 1.4 μM NE final concentration, n=5",1.63 nW per cell
same,"average power output, thermogenic response from groups of 10 NE-stimulated cells","brown adipocytes; groups of 10 brown adipocytes, 1.4 μM NE final concentration, 700 pL chamber, n=5",16.3 nW
"N#CC(C#N)=NNc1cccc(Cl)c1 [CCCP, carbonyl cyanide m-chlorophenyl hydrazone]",heat production per cell,[1],1.71 nW per cell
same,mean change in signal,[1]; within three minutes,136 μK
C=C(C)[C@H]1Cc2c(ccc3c2O[C@@H]2COc4cc(OC)c(OC)cc4[C@@H]2C3=O)O1 [rotenone],delay before temperature response began to return to basal level,"brown adipocytes; NE-stimulated brown adipocytes, rotenone 14 μM final concentration",3 min
same,time for temperature response to return to basal level,"brown adipocytes; NE-stimulated brown adipocytes, rotenone 14 μM final concentration, after the delay",≤ 5 min
"OO [H2O2, Hydrogen peroxide]","generated power, maximum signal change",single mouse liver cell,38.2 nW

# From patent publication US20050076943A1, “Thermoelectric sensor” (priority 2001, published 2005)
